Experimental data published in patent US11970731B2, “Enhancement of nucleic acid polymerization by aromatic compounds” (priority 2018, dated 2024).

Experiments:
[1] = biological target: T1, C4760 DNA polymerase (a variant of DPO4) (Saccharolobus solfataricus, UniProt Q97W02, A155G/A42V/D156R/D292Y/D294N/E291S/E324K/E325K/E327K/E63R/E79L/G187P/G299W/I153V/I189F/I248T/I295S/K152A/K317Q/K321Q/K56Y/K78D/L293W/M76W/N188Y/P184Q/Q82W/Q83G/R300S/S297Y/S86E/T290K/T301W/V289W/V296Q); test: Primer extension assays using the HIV2 100 mer template; type: biochemical, Sulfolobus solfataricus
T1 construct: made in house
Procedure: PEM activity of compound 12 was tested in primer extension assays using the HIV2 100 mer template. Primer extension reactions included the following reagents: 50 mM TrisCl, 200 mM NH4OAc, 20% PEG8K, 5% NMS, 0.6 nmol PP-60.20, 0.6 mM MnCl2, 2.75 μg/μl Eco single-strand binding protein (SSB), 1 M urea, 50 pmol each XNTP, 1.1 pmol template, 1 pmol oligonucleotide primer, 1.2 μg/μl purified recombinant C4760 DNA polymerase (SEQ ID NO:2), and 0.5, 1, or 1.5 mM PEM. 10 μL primer extension reactions were run for 30 minutes at 23° C. and reaction products were analyzed by gel electrophoresis. […] Lanes 2-4 show primer extension products from reactions with a structurally related additive lacking robust PEM activity.
PEM activity of compounds 13 and 14 was tested in primer extension assays using the HIV2 100 mer template. Primer extension reactions included the following reagents: 50 mM TrisCl, 200 mM NH4OAc, 20% PEG8K, 5% NMS, 0.6 nmol PP-60.20, 0.6 mM MnCl2, 2.75 μg/μl Eco single-strand binding protein (SSB), 1 M urea, 50 pmol each XNTP, 1.1 pmol template, 1 pmol oligonucleotide primer, 1.2 μg/μl purified recombinant C4760 DNA polymerase (a variant of DPO4, see SEQ ID NO:2), and 0.5, 1, 1.52, or 2.5 mM PEM. 10 μL primer extension reactions were run for 30 minutes at 23° C. and reaction products were analyzed by gel electrophoresis. A representative gel showing primer extension products is presented in FIG. 11 (the position of the full length HIV2 100 mer is indicated by the arrow).
PEM activity of compounds 16, 17, and 18 and combinations thereof were tested in primer extension assays using the HIV2-derived 100mer template. Primer extension reactions included the following reagents: 50 mM TrisCl, 200 mM NH4OAc, 20% or 25% PEG8K, 5% NMS, 0.6 nmol PP-60.20, 0.6 mM MnCl2, 2 μg Kod single-strand binding protein (SSB), 1 M urea, 50 pmol each XNTP, 1 pmol template, 1 pmol oligonucleotide primer, 1.2 μg purified recombinant C4760 DNA polymerase (a variant of DPO4, see SEQ ID NO:2), and 0.5-2 mM PEM. 10 μL primer extension reactions were run for 30 minutes at 37° C. and reaction products were analyzed by gel electrophoresis. A representative gel showing primer extension products is presented in FIG. 13 (the position of a 100mer product is indicated by the arrow).

[2] = system: DNA polymerase; test: Screen of PEMs for enhancement of XNTP polymerization (primer extension, gel electrophoresis); type: biochemical; conditions: for DNA polymerase-mediated primer extension with XNTPs (length of extension products): FIG. 4 gel, 45 mer template, without PEM additive up to only around 14 XNTPs
Procedure: A representative primer extension reaction may include the following reagents: 2 pmol primer, 2.2 pmol 45 mer oligonucleotide template, 50 pmol of each XNTP (XATP, XCTP, XGTP, and XTTP), 50 mM Tris HCl, pH 6.79, 200 mM NaCl, 20% PEG, 5% NMS, 0.5 nmol polyphosphate 60.19, 0.3 mM MnCl2, and 0.6 μg of purified recombinant DNA polymerase protein. Reactions may be run for 1 hr at 23° C. Reaction products (i.e., constrained Xpandomers) are treated to cleave the phosphoramidate bonds, thereby generating linearized Xpandomers. Reaction products may be analyzed using gel electrophoresis on 4-12% acrylamide gels to resolve and visualize Xpandomer products of different lengths. For the PEM screen described above, PEMs were typically tested in the micro to millimolar range.
Again, this PEM activity is specific for compound 2, as other unrelated aromatic compounds had no effect (lanes 2-7).

[3] = 0.5, 1, 1.52, or 2.5 mM PEM, Eco SSB, 30 minutes at 23° C., FIG. 11, comparator compound 10 (lanes 1-4)
[4] = 2 mM compound 16, 0.5, 1, 2, and 3 mM compound 17, Kod SSB, 30 minutes at 37° C., FIG. 13, comparator compound 14 (lane 1)

T1 sequence (Q97W02 other isoform, or with tags, fused parts or gaps with the stated changes): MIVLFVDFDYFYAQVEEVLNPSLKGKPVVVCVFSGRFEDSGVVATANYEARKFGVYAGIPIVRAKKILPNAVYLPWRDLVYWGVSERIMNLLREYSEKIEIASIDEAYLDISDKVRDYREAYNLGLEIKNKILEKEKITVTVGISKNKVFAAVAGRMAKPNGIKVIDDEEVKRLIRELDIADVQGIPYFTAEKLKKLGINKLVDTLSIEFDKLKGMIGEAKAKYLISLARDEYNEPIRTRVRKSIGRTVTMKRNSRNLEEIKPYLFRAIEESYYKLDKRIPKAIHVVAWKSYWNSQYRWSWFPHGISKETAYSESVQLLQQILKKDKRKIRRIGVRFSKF

## CCOC(=O)c1cc(-c2cn(-c3ccc(C(=O)O)c(O)c3)nn2)nc(-c2cn(-c3ccc(C(=O)O)c(O)c3)nn2)c1 [Compound 14, 4,4′-((4-(ethoxycarbonyl)pyridine-2,6-diyl)bis(1H-1,2,3-triazole-4,1-diyl))bis(2-hydroxybenzoic acid)]
[1]; [3]
  PEM activity: polymerization of XNTPs into Xpandomer copies of the 100 mer template: enables polymerization of XNTPs into full length Xpandomer copies of the 100 mer template in a manner comparable to that of compound 10

## Cc1cc(-c2cn(-c3ccc(C(=O)O)c(O)c3)nn2)nc(-c2cn(-c3ccc(C(=O)O)c(O)c3)nn2)c1 [Compound 13, 4,4′-((4-methylpyridine-2,6-diyl)bis(1H-1,2,3-triazole-4,1-diyl))bis(2-hydroxybenzoic acid)]
[1]; [3]
  PEM activity: polymerization of XNTPs into Xpandomer copies of the 100 mer template: enables polymerization of XNTPs into full length Xpandomer copies of the 100 mer template in a manner comparable to that of compound 10

## COC(=O)c1cc(-c2cn(-c3ccc(C(=O)O)c(O)c3)nn2)nc(-c2cn(-c3ccc(C(=O)O)c(O)c3)nn2)c1 [Compound 16, 4,4′-((4-(methoxycarbonyl)pyridine-2,6-diyl)bis(1H-1,2,3-triazole-4,1-diyl))bis(2-hydroxybenzoic acid)]
[1]; [4]
  PEM activity: polymerization of XNTPs into Xpandomer copies of the 100 mer template: enable polymerization of XNTPs into lengthy Xpandomer copies of the 100 mer template in a manner comparable to that of compound 14

## O=C(O)c1ccc(-n2cc(-c3cncc(-c4cn(-c5ccc(C(=O)O)c(O)c5)nn4)c3)nn2)cc1O [Compound 2, 4,4′-(pyridine-3,5-diylbis(1H-1,2,3-triazole-4,1-diyl))bis(2-hydroxybenzoic acid)]
[2]; FIG. 5 gel, compound at various concentrations (lanes 8-10), without PEM additive modest activity
  primer extension activity with XNTPs: significantly enhances primer extension activity

## O=C(O)c1ccc(-n2cc(-c3cccc(-c4cn(-c5ccc(C(=O)O)c(O)c5)nn4)c3)nn2)cc1O [Compound 3, 4,4′-(1,3-phenylenebis(1H-1,2,3-triazole-4,1-diyl))bis(2-hydroxybenzoic acid)]
[2]
  DNA polymerase-mediated primer extension with XNTPs (length of extension products): enables the polymerase to synthesize considerably longer extension products

## O=C(O)c1ccc(-n2cc(-c3ccc4[nH]c5ccc(-c6cn(-c7ccc(C(=O)O)c(O)c7)nn6)cc5c4c3)nn2)cc1O [Compound 4, 4,4′-((9H-carbazole-3,6-diyl)bis(1H-1,2,3-triazole-4,1-diyl))bis(2-hydroxybenzoic acid)]
[2]
  DNA polymerase-mediated primer extension with XNTPs (length of extension products): enables the polymerase to synthesize considerably longer extension products

## CCNC(=O)c1cc(-c2cn(-c3ccc(C(=O)O)c(O)c3)nn2)nc(-c2cn(-c3ccc(C(=O)O)c(O)c3)nn2)c1 [Compound 17, 4,4′-((4-(ethylcarbamoyl)pyridine-2,6-diyl)bis(1H-1,2,3-triazole-4,1-diyl))bis(2-hydroxybenzoic acid)]
[1]; [4]
  PEM activity: polymerization of XNTPs into Xpandomer copies of the 100 mer template: enable polymerization of XNTPs into lengthy Xpandomer copies of the 100 mer template in a manner comparable to that of compound 14

## N#Cc1cc(-c2cn(-c3ccc(O)c(C(=O)O)c3)nn2)nc(-c2cn(-c3ccc(O)c(C(=O)O)c3)nn2)c1 [Compound 12, 5,5′-((4-cyanopyridine-2,6-diyl)bis(1H-1,2,3-triazole-4,1-diyl))bis(2-hydroxybenzoic acid)]
[1]; 0.5, 1, or 1.5 mM PEM, Eco SSB, 30 minutes at 23° C., FIG. 10, comparable to compound 10 (lane 1)
  PEM activity: polymerization of XNTPs into Xpandomer copies of the 100 mer template: enables polymerization of XNTPs into full length Xpandomer copies of the 100 mer template
